Data published in article PMC7495385, “Role of Escape Mutant-Specific T Cells in Suppression of HIV-1 Replication and Coevolution with HIV-1” (Journal of Virology, 2020).

Legend:
Type in all cases: cell-based, human
[1] = tested on: HLA-B*52:01-restricted CD8+ T cells (PBMCs of HIV-1 subtype B-infected individuals); assay: IFN-γ ELISPOT assay, T cell responses to peptides in HLA-B*52:01+ individuals; conditions: positive >200 spots/10^6 CD8+ T cells
Method: Ex vivo gamma interferon (IFN-γ) ELISPOT assays were performed as previously described ([6], [49]). The number of spots for a T cell response to each peptide was finally calculated by subtracting the number of spots in wells without peptides. The mean + 3 standard deviations (SD) of the spot number of samples from 13 HIV-1 naive individuals for the peptides was 162 spots/10^6 CD8^+ T cells ([6], [49]). Therefore, we defined >200 spots/10^6 CD8^+ T cells as positive responses.

[2] = tested on: RI8-6T-specific T cell lines (KI-906); assay: ICS assay, 721.221-B*52:01 cells prepulsed with peptide, T cell lines from KI-906; conditions: two RI8-6T-specific T cell lines from KI-906 (Nov 2010, Aug 2013); 2 h, then brefeldin A 4 h at 37°C; IFN-γ+ of CD8+ T cells; means with SD (n = 3)
Source text: (§1) PBMCs were stained with PE- or APC-conjugated tetramers, FITC-conjugated anti-CD3 (Dako, Glostrup, Denmark), Pacific blue-conjugated anti-CD8 MAb (BD Biosciences), and 7-AAD (BD Pharmingen), after which CD3^+ CD8^+ 7AAD^− tetramer^+ T cells were sorted in U-bottomed 96-well microtiter plates (1 cell/well for T cell clones and 100 to 500 cells/well for T cell lines) by using a FACSAria (BD Biosciences). The sorted cells were stimulated with the corresponding epitope peptide and cultured as previously described ([51]). After 2 to 3 weeks in culture, epitope-specific CD8^+ T cells were used in functional assays after their purity had been confirmed by flow cytometry analysis using tetramers.
(§2) 721.221 cells prepulsed with HIV-1 epitope peptide or 721.221 cells infected with HIV-1 were cocultured with T cell clones or lines in a 96-well plate for 2 h at 37°C. Brefeldin A (10 μg/ml) was then added, and the cells were incubated further for 4 h at 37°C. The cells were then fixed with 4% paraformaldehyde and incubated in permeabilization buffer (0.1% saponin–10% fetal bovine serum [FBS]–phosphate-buffered saline [PBS]), after which they were stained with APC-conjugated anti-CD8 MAb (Dako, Denmark) followed by FITC-conjugated anti-IFN-γ MAb (BD Biosciences). The percentage of IFN-γ-producing cells among the CD8^+ T cell population was determined by use of the FACSCanto II.

[3] = tested on: RI8-6T-specific T cell clone 2F (KI-855); assay: ICS assay, 721.221-B*52:01 cells prepulsed with peptide, clone 2F from KI-855; conditions: RI8-6T-specific T cell clone 2F from KI-855; 2 h, then brefeldin A 4 h at 37°C; IFN-γ; means with SD (n = 3)
Source text: as §1, §2

[4] = tested on: cross-reactive T cell clone 8F (KI-855); assay: ICS assay, 721.221-B*52:01 cells prepulsed with peptide, clone 8F from KI-855; conditions: cross-reactive clone 8F from KI-855; 2 h, then brefeldin A 4 h at 37°C; IFN-γ; means with SD (n = 3)
Source text: as §1, §2

For RMYSPTSI [RI8-6T], the “number of individuals with epitope-specific T cells detected” value ([1]; 12 HLA-B*52:01+ individuals infected with Gag280V virus, IFN-γ ELISPOT) was 4 individuals, the “T cell response to peptide in individual KI-809” value ([1]; PBMCs from wild-type virus-infected KI-809, ELISPOT) was “strong T cell response” and the “recognition of 721.221-B*52:01 cells prepulsed with peptide” value (“recognition” for short) [2] was “recognized”. The “recognition” value [3] was “effectively recognized” and the “recognition” value [4] was “effectively recognized”.
